Experimental data taken from ChEMBL document CHEMBL1145330, “NMR structure of a potent small molecule inhibitor bound to human keratinocyte fatty acid-binding protein” (J Med Chem, 2006).

Tests used:
[1] = biological target: Fatty acid-binding protein 5 (Homo sapiens, UniProt Q01469); assay: Binding affinity to human kFABP
[2] = biological target: Fatty acid-binding protein, adipocyte (Homo sapiens, UniProt P15090); assay: Binding affinity to ap2
Fatty acid-binding protein, adipocyte, sequence (P15090 whole entry): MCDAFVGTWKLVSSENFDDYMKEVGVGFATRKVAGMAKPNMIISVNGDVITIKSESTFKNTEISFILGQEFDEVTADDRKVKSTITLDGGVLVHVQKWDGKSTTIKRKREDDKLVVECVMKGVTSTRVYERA

Fatty acid-binding protein 5, sequence (Q01469 whole entry): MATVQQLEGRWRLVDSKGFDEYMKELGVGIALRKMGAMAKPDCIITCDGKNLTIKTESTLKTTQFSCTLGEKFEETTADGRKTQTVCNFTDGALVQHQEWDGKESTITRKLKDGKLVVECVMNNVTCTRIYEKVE

Row | Ki [1] | Ki [2] | Structure (SMILES)
1 | > 2000 nM | > 2000 nM | OCC(O)c1cccc(OCc2ccccc2Cl)c1OCc1ccccc1Cl (stereo unspecified)
2 | – | 16 nM | O=C(O)Cc1cccc(OCc2ccccc2Cl)c1OCc1ccccc1Cl
3 | < 2 nM | < 2 nM | O=C(O)C(=O)c1cccc(OCc2ccccc2Cl)c1OCc1ccccc1Cl
4 | – | 2.5 nM | O=C(O)[C@@H](O)c1cccc(OCc2ccccc2Cl)c1OCc1ccccc1Cl
